# Measured values from ChEMBL document CHEMBL4321852, “Structure-Based and Property-Driven Optimization of N-Aryl Imidazoles toward Potent and Selective Oral RORγt Inhibitors” (J Med Chem, 2019).
# pIC50: −log10 of the molar value.
# Legend:
# [1] = biological target: T1, Nuclear receptor subfamily 1 group I member 2 (Homo sapiens, UniProt O75469); assay: Inhibition of Gal4-tagged PXR LBD (unknown origin) by cell based luciferase reporter gene assay
# T1 sequence (O75469 whole entry): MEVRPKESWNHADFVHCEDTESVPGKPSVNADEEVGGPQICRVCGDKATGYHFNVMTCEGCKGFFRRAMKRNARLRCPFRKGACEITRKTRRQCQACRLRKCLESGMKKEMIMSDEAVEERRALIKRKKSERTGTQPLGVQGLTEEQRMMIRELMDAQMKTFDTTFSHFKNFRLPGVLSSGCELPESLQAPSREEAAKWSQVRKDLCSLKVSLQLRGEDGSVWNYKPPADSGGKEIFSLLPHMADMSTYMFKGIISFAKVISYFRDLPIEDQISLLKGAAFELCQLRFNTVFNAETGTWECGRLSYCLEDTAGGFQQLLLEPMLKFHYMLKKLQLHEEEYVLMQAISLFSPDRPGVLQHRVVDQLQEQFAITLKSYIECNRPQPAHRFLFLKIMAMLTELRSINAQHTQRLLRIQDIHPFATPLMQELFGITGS
# Rattus norvegicus [2] = assay: Anti-inflammatory activity in mBSA/CFA-immunized Lewis rat delayed-type hypersensitivity model assessed as reduction in frequencies of IL-17-producing draining lymph node cells at 1 to 15 mg/kg, po via gavage administered twice daily for 2 days treated prior to mBSA/CFA challenge relative to control; type: functional; set-up: scale not given: the % may be the effect or the level left
# [3] = Inhibition of RORgammat in rat CD4+ T-cells polarized with Th17 cytokine mix assessed as inhibition of IL-17 secretion
# [4] = biological target: T2, Nuclear receptor ROR-alpha (Homo sapiens, UniProt P35398); assay: Inhibition of Gal4-tagged RORalpha LBD (unknown origin) by cell based luciferase reporter gene assay
# T2 sequence (P35398 whole entry): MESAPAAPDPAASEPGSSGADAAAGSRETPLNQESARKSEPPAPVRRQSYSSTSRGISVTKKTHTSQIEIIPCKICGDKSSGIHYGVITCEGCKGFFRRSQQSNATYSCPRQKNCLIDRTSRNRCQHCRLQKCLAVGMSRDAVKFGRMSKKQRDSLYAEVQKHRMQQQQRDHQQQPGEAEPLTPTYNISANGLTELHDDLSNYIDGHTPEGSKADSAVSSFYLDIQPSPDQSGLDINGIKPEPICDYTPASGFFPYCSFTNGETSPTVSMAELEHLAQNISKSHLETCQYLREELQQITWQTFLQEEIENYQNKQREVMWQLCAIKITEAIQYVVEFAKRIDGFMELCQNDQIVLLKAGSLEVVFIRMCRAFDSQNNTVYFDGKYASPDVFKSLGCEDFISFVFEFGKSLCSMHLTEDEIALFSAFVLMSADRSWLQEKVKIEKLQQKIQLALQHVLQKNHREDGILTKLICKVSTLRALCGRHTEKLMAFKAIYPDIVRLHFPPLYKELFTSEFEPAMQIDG
# [5] = Clearance in Sprague-Dawley rat at 1 mg/kg, iv; type: ADME, organism-based; conditions: in vivo
# [6] = Dose normalized AUC in Sprague-Dawley rat at 1 mg/kg, iv; type: ADME, organism-based; conditions: in vivo
# [7] = biological target: T3, Nuclear receptor ROR-gamma (Homo sapiens, UniProt P51449); assay: Displacement of RIP140 cofactor peptide from human His6-tagged RORgammat LBD (264 to 518 residues) by TR-FRET assay
# T3 sequence (P51449 whole entry): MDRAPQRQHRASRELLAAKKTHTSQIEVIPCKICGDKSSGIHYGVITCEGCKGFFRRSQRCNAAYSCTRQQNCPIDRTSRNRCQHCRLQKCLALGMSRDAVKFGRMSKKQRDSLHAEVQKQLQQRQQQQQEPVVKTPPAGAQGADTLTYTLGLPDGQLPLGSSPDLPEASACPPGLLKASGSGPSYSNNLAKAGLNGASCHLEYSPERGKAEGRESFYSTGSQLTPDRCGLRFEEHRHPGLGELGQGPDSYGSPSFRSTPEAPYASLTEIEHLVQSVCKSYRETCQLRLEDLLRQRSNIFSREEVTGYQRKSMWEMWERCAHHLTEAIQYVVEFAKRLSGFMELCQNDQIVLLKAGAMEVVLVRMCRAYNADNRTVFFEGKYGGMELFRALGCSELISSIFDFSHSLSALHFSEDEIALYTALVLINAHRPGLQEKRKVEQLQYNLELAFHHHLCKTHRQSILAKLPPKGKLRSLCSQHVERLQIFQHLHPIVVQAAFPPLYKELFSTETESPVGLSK
# Rattus norvegicus [8] = assay: Anti-inflammatory activity in mBSA/CFA-immunized Lewis rat delayed-type hypersensitivity model assessed as reduction in frequencies of IL-17-producing draining lymph node cells at 1 to 15 mg/kg, po via gavage administered twice daily for 2 days treated prior to mBSA/CFA challenge; type: functional, organism-based
# [9] = Distribution coefficient of the compound, high-throughput logD using octanol-buffer at pH 7.4 by LC-MS/MS analysis shake flask method; type: physicochemical
# Cytochrome P450 3A4 = Cytochrome P450 3A4 (Homo sapiens, UniProt P08684); assay: Time dependent inhibition of CYP3A4 (unknown origin); type: ADME; set-up: concentration or dose not given beside the values
# Estrogen receptor = biological target: T4, Estrogen receptor (Homo sapiens, UniProt P03372); assay: Inhibition of Gal4-tagged ERalpha LBD (unknown origin) by cell based luciferase reporter gene assay
# T4 sequence (P03372 whole entry): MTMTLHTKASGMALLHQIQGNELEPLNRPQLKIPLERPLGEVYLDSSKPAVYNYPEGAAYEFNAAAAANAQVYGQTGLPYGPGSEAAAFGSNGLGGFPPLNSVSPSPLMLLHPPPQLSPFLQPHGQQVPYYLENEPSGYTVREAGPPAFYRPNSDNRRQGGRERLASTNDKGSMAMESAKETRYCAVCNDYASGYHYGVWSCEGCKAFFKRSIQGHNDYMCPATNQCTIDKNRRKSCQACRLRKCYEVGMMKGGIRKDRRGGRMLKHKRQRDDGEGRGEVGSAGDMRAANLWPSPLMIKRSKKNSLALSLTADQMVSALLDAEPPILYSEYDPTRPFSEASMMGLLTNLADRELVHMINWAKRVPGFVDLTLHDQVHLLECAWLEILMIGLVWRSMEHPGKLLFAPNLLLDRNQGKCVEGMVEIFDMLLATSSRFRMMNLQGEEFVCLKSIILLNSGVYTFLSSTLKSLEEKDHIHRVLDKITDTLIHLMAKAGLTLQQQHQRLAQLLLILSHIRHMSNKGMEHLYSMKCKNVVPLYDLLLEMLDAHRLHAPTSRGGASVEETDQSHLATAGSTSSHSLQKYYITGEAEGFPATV
# Chain of Cytochrome P450 3A4 (P08684 whole entry, the tested form may be a part): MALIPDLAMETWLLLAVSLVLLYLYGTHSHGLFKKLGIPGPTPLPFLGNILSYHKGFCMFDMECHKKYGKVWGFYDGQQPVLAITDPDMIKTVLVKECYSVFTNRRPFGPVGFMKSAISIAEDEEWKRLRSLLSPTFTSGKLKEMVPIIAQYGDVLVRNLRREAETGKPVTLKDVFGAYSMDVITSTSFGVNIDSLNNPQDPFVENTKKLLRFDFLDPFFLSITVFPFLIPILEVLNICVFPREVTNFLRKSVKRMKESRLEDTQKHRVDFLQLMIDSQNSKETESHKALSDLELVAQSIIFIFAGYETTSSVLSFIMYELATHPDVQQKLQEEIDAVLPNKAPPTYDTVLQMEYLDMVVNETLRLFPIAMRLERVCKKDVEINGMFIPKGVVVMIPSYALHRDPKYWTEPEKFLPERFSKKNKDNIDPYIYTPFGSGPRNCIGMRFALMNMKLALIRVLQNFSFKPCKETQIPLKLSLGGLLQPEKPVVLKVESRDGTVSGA
compound,measurement,setting,value
"Cc1c(C2(C(F)(F)F)CC2)nc(C2CC2)n1-c1c(Cl)ccc(N2CC3(CC(C(=O)O)C3)C2)c1Cl (single isomer, unassigned; atropisomer)",pIC50,[1],< 5.00
same,Activity,Rattus norvegicus [2],50%
same,pIC50,[3],6.41
same,pIC50,[4],< 5.00
same,clearance,[5],2.7 mL/min/kg
same,AUC/dose,[6],12680 nM·h
same,pIC50,[7],8.30
same,Activity,Rattus norvegicus [8],Dose-dependent effect
same,logD,[9],2
same,K,Cytochrome P450 3A4,0.005 min⁻¹
same,pIC50,Estrogen receptor,< 5.00
